Laboratory results as given in patent publication US20250059201A1, “CAMPTOTHECIN COMPOUND AND CONJUGATE THEREOF” (priority 2021, published 2025).
Several values for one entry are separate records, joined by “and”; a condition that tells them apart may be missing. Equal entries are not always repeated. Where two headings read alike, the source gives them in different places.

T1: Trop-2 on BxPC-3 cells (human, UniProt P09758 27-323)
T1 construct: whole, on cells; also called Trop-2-positive BxPC-3 tumor cells
T1 sequence (looked up): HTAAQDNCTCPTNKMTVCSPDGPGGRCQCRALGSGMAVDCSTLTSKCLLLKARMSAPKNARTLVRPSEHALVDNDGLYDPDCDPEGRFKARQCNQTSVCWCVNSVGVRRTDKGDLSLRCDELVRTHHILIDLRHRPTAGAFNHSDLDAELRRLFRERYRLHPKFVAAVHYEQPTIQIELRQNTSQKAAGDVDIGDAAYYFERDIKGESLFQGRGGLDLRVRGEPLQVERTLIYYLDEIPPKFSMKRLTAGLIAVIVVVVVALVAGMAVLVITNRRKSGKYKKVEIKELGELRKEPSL

B1: Trop2-ADC-14 (antibody, human IgG1, kappa, V domains shown)
VH: QVQLVQSGAEVKKPGASVKVSCKASGYTFTSYWMHWVRQAPGQGLEWMGEITPSDNYGSYNQKFKGRVTITRDTSTSTAYMELSSLRSEDTAVYYCARGHGNYVSFDYWGQGTLVTVSS
VL: DIQMTQSPSSLSASVGDRVTITCRASQDISNYLNWYQQKPGKAPKLLIYYTSRLESGVPSRFSGSGSGTDFTLTISSLQPEDFATYFCQQGYTLPPYTFGQGTKLEIKR
modifications: drug-containing linker MWF-L6 (Compound 3 payload) bridged on cysteines of the reduced disulfide bonds, DAR 4.1; positions not given
notes: Antibody-drug conjugate: antibody h23-12 with MWF-L6, site-specific bridged conjugation, DAR 4.1; also called ADC 1o; h23-12 conjugated with drug-containing linker MWF-L6
B2: Antibody h23-12 (antibody, human IgG1, kappa, V domains shown)
VH: B1 VH
VL: B1 VL
notes: Monoclonal antibody; also called the mAb in Trop2-ADC-14; anti-Trop-2 antibody h23-12

How the values were obtained:
[1] = system: NCI-N87 human gastric cancer cells; assay: Comparative study of the activity of camptothecins (CCK-8 cell killing); type: cell-based
Experimental: (§1) KB oral epithelial cancer cells (purchased from: ATCC) were cultured in DMEM medium supplemented with 10% FBS; NCI-N87 human gastric cancer cells (purchased from: ATCC) were cultured in RPMI1640 medium supplemented with 10% FBS; HT29 human colon cancer cells (purchased from: ATCC) were cultured in RPMI1640 medium supplemented with 10% FBS; and BxPC-3 human pancreatic adenocarcinoma cells (purchased from: ATCC) were cultured in RPMI1640 medium supplemented with 10% FBS.
(§2) Using corresponding media described above and in cell plates, the density of KB cells was adjusted to 2×10^4/mL; the density of NCI-N87 cells was adjusted to 5×10^4/mL; the density of HT29 cells was adjusted to 5×10^4/mL, and the cells were plated onto 96-well transparent flat bottom plates, at 100 µL/well, and cultured overnight; and the density of BxPC-3 cells was adjusted to 5×10^4/mL.
(§3) Samples to be detected were diluted to 20 μM with corresponding media, then 5-fold gradient dilution was performed, and 9 concentrations were obtained. A well having cells but with no any sample added was set as the well showing maximum cell growth; and a well having no cells was set as the well of medium background. The diluted samples were added into the cell plates, at 100 μL/well, which were then incubated in a C02 incubator for 96 hours. After the incubation, CCK-8 (purchased from: DOJINDO LABORATORIES) prepared beforehand was added into the plates, at 20 μL/well, and after further 3 hours incubation in the C02 incubator, […] were read on a microplate reader.
(§4) Data obtained was fitted to a four-parameter curve using software Prism7, and equation for calculating maximum killing is: maximum killing (%)=1−(OD450 value of the well showing maximum killing—OD450 value of the well of medium background)/(OD450 value of the well showing maximum cell growth—OD450 value of the cell of medium background)[…].

[2] = system: BxPC-3 human pancreatic adenocarcinoma cells; assay: as above; type: cell-based; conditions: for Emax: read-out: Maximum Killing (%), BxPC-3, killing days 4 days
Experimental: as §1, §2, §3, §4

[3] = system: HT29 human colon cancer cells; assay: as above; type: cell-based; conditions: HT29, killing days 4 days
Experimental: as §1, §2, §3, §4

[4] = system: KB oral epithelial cancer cells; assay: as above; type: cell-based; conditions: killing days 4 days
Experimental: as §1, §2, §3, §4

Trop-2 on BxPC-3 cells [5] = biological target: T1, Trop-2 on BxPC-3 cells; assay: flow cytometry, fluorescently labeled drug on BxPC-3 cells, on ice 1 h (mean ± SD, n = 2)
Experimental: (§5) Different concentrations (1, 3, 10, 30, 100, 300, 1000, 3000, 10000, 30000, and 100000 ng/mL) of fluorescently labeled Trop2-ADC-14 and the mAb in Trop2-ADC-14 (i.e., antibody h23-12) were incubated with BxPC-3 cells (purchased from: ATCC) on ice for 1 hour in dark, and then the cells were centrifuged to remove supernatant, washed with PBS, re-suspended, and the fluorescence intensity of the drugs bound to the cells was measured with a flow cytometer (BD ACCURI C6 PLUS). The experiment was repeated once.

Trop-2 on BxPC-3 cells [6] = biological target: T1, Trop-2 on BxPC-3 cells; assay: flow cytometry, fluorescently labeled antibody on BxPC-3 cells, on ice 1 h (mean ± SD, n = 2)
Experimental: as §5

[7] = Homo sapiens, NCI-N87, 96 h, read-out: Maximum Killing (%), NCI-N87, killing days 4 days
[8] = Homo sapiens, BXPC-3, 96 h, BxPC-3, killing days 4 days

Molecule | Emax [1, 7] [%] | Emax ([2]; Homo sapiens, BXPC-3, 96 h) [%] | also measured
CC[C@@]1(O)C(=O)OCc2c1cc1n(c2=O)Cc2c-1nc1cc(F)c(N)c3c1c2C(F)(F)CS3 [Compound 27] | 90.6 | 97.7 | 
CC[C@@]1(O)C(=O)OCc2c1cc1n(c2=O)Cc2c-1nc1ccc(N)c3c1c2CCO3 [Compound 14] |  | 84.7 | EC50 [2, 8]: 6.46 nM
CC[C@@]1(O)C(=O)OCc2c1cc1n(c2=O)Cc2c-1nc1ccc(N)c3c1c2CCS3(=O)=O [Compound 15] | 83.6 | 87.9 | 
CC[C@@]1(O)C(=O)OCc2c1cc1n(c2=O)Cc2c-1nc1ccc(N)c3c1c2CC[S@@+]3[O-] [Compound 14-P2] | 68.4 | 43.3 | 
CC[C@@]1(O)C(=O)OCc2c1cc1n(c2=O)Cc2c-1nc1ccc(N)c3c1c2C1CC1C3 (some centres unmarked) [Compound 7] | 87.9 | 94.4 | 
CC[C@@]1(O)C(=O)OCc2c1cc1n(c2=O)Cc2c-1nc1cc(F)c(N)c3c1c2CCO3 [Compound 18] | 92.9 | 99.6 | 
CC[C@@]1(O)C(=O)OCc2c1cc1n(c2=O)Cc2c-1nc1cc(F)c(N)c3c1c2CCS3 [Compound 26] | 93.4 | 99.1 | 
CC[C@@]1(O)C(=O)OCc2c1cc1n(c2=O)Cc2c-1nc1ccc(N)c3c1c2CC[S@+]3[O-] [Compound 14-P1] | 42.5 | 38.8 | 
CC[C@@]1(O)C(=O)OCc2c1cc1n(c2=O)Cc2c-1nc1ccc(N)c3c1c2C(F)(F)CS3 [Compound 13] |  | 98.9 | EC50 [2, 8]: 1.41 nM
CC[C@@]1(O)C(=O)OCc2c1cc1n(c2=O)Cc2c-1nc1ccc(N)c3c1c2C(F)(F)CO3 [Compound 31] | 90.7 | 93.7 | 
CC[C@@]1(O)C(=O)OCc2c1cc1n(c2=O)Cc2c-1nc1ccc(N)c3c1c2C(C)(C)CC3 [Compound 1] | 92.1 |  | 
CC[C@@]1(O)C(=O)OCc2c1cc1n(c2=O)Cc2c-1nc1cc(F)c(N)c3c1c2C(F)(F)CC3 [Compound 20] | 93.2 | 99.2 | EC50 ([1]; Homo sapiens, NCI-N87, 96 h, NCI-N87, killing days 4 days): 0.059 nM; EC50 [2, 8]: 0.683 nM
CCC1(O)CC(=O)OCc2c1cc1n(c2=O)Cc2c-1nc1ccc(N)c3c1c2CCC3 (centres unmarked) [Compound 17] |  |  | EC50 ([1]; Homo sapiens, 96 h, NCI-N87, killing days 4 days, read-out: EC50): 7.43 nM; Emax ([1]; Homo sapiens, 96 h, NCI-N87, killing days 4 days, read-out: Maximum Killing (%)): 87.6%
CC[C@@]1(O)C(=O)OCc2c1cc1n(c2=O)Cc2c-1nc1cc(F)c(C)c3c1c2[C@@H](NC(=O)CO)CC3 [Dxd] |  |  | Maximum Killing (%) ([1]; NCI-N87, killing days 4 days): 92.8% and 92.7% and 94.6%; EC50 [3]: 127 nM and 133 nM; Maximum Killing (%) [3]: 87.4% and 85.4%; Maximum Killing (%) ([2]; BxPC-3, killing days 4 days): 91.8%; EC50 ([2]; BxPC-3, killing days 4 days, read-out: EC50): 24.3 nM; Maximum Killing (%) [4]: 94.7% and 94.9%
CC[C@@]1(O)C(=O)OCc2c1cc1n(c2=O)Cc2c-1nc1cc(F)c(N)c3c1c2C(F)(F)CO3 [Compound 19] |  | 97.4 | 
CC[C@@]1(O)C(=O)OCc2c1cc1n(c2=O)Cc2c-1nc1ccc(N)c3c1c2CCC3 [MWC-1, reference compound] | 93.4 |  | EC50 ([1]; Homo sapiens, NCI-N87, 96 h, NCI-N87, killing days 4 days, read-out: EC50): 4.44 nM; EC50 ([1]; NCI-N87, killing days 4 days, read-out: EC50): 5.22 nM; EC50 [3]: 8.68 nM; EC50 ([3]; Homo sapiens, HT-29, 96 h): 9.89 nM; EC50 ([4]; 96 h): 14.8 nM
CC[C@@]1(O)C(=O)OCc2c1cc1n(c2=O)Cc2c-1nc1ccc(N)c3c1c2CCS3 [Compound 12] | 94.9 | 98.5 | 
B1 |  |  | EC50 (Trop-2 on BxPC-3 cells [5]): 1.3 µg/mL
B2 |  |  | EC50 (Trop-2 on BxPC-3 cells [6]): 1.14 µg/mL
